For 3 compounds, IC50 and AC50 results are on record in ChEMBL document CHEMBL1201862, “PubChem BioAssay data set” (2004).

Broadly, the IC50 is the point on the concentration scale where inhibition reaches its midpoint. Broadly, the AC50 is the concentration giving half of the maximal activity seen.

Structures are written as SMILES. Active and inactive are the calls of the source. A value given as a limit tells only on which side of the number the result lay.

For assay [1], the system named is HEK293. Briefly: cytotoxicity in HEK293T NF-kB-Luc cells, SAR follow-up, cytotoxicity control for NF-kB activator project, cell-based, resazurin fluorescence (AID 493251). The format is functional. The note with it: Homo sapiens.
In another assay the test system is Jurkat. Briefly: SAR Analysis of small molecule inhibitors of T-cell specific antigen receptor-induced NF-kB activation in a Jurkat cell line using a luminescence assay - Set 2. [Related pubchem assays (depositor defined):AID435003, AID435012, AID465]. It is filed as functional, cell-based. The following applies: Homo sapiens.
The test system of assay [2] is HEK293. The assay can be described thus: SAR Analysis of small molecule inhibitors of T-cell specific antigen receptor-induced NF-kB activation in a HEK-293T cell line using a luminescence assay - Set 2. [Related pubchem assays (depositor defined):AID435003, AID435012, AID489026]. The format is functional, cell-based. The note with it: Homo sapiens.
In assay [3] the target is Dual specificity protein phosphatase 3 (Homo sapiens, UniProt P51452). Briefly: SAR VHR1 Fluorescent Assay for In Vitro dose response studies Set 3. [Related pubchem assays (depositor defined):AID1654, AID1661, AID1878]. The format is functional.
Sequence of Dual specificity protein phosphatase 3 (P51452 whole entry): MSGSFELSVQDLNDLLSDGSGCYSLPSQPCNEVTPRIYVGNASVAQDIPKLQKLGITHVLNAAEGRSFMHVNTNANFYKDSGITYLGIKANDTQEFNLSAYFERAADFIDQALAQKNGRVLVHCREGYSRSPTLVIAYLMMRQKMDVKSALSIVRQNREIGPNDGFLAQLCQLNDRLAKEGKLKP
Assay [4] concerns the target T1, Mannose-6-phosphate isomerase (Homo sapiens, UniProt P34949).
T1 sequence (P34949 whole entry): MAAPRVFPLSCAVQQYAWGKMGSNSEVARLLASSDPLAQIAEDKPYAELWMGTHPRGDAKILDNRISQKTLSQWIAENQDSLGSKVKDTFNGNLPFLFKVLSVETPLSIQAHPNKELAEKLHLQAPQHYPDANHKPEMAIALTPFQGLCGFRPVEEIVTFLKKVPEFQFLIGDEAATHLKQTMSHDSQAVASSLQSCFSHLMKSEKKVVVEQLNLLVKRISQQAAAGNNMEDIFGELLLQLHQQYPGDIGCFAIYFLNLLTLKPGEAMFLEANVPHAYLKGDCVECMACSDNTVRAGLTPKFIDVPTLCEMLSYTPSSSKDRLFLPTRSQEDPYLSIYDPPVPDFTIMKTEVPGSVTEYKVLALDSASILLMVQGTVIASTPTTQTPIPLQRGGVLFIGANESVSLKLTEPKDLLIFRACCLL
The assay can be described thus: human PMI inhibitors, high substrate, primary screen, biochemical, fluorescence intensity, high mannose 6-phosphate (AID 1220).

Assay [5] is described as follows: Luminescence Cell-Based Dose Retest to Confirm Inhibitors of Cancer Stem Cells. [Related pubchem assays (depositor defined):AID2717, AID2721]. It is filed as functional. The following applies: Homo sapiens.
A short description of assay [6]: cytotoxicity in HMLE control line with eGFP shRNA, dose response, counter-screen for HMLE_sh_ECad selective toxicity project, cell-based, HMLE_sh_eGFP, luminescence (AID 463074).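 Further: HMLE human mammary epithelial cells expressing control shRNA against eGFP.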 It is filed as functional, Homo sapiens. In general terms: A counterscreen serves to expose hits that act by an unwanted route or on another target.
Assay [7] addresses T2, Tyrosyl-DNA phosphodiesterase 2 (Homo sapiens, UniProt O95551).
T2 sequence (O95551 whole entry): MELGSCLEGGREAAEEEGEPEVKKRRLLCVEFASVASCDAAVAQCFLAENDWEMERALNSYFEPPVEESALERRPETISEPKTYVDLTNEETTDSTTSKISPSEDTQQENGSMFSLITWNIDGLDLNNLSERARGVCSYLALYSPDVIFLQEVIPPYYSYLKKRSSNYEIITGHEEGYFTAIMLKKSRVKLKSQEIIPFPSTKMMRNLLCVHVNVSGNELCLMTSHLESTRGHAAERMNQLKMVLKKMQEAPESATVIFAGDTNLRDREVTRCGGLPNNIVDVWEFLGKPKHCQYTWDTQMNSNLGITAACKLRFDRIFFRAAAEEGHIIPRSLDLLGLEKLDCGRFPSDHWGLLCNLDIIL
The assay can be described thus: human TDP2 enzyme inhibitors, dose response, biochemical, epi absorbance, IC50 (AID 743297).

Consider `CC(=O)N1CCc2cc(NC(=O)c3ccc([N+](=O)[O-])o3)ccc21`, for which the IC50 was > 80 µM (inactive) with HEK293 [1], 49.5 µM (inactive) in the assay with Jurkat and 50.5 µM (inactive) in the assay with HEK293 [2].

As to `COc1ccc(-c2nnc(Nc3nc4c(F)cccc4s3)o2)cc1`, the IC50 in assay [3] was 3.71 µM (active).

In the case of `Oc1c(/C=N/c2cccc3nsnc23)ccc2ccccc12`, the IC50 in assay [4] was > 50 µM (not active); in assay [7], 80.5 µM (inactive). Besides, the results for the AC50 in assay [5] and in assay [6] were 23.7 µM (active) and 29.4 µM (active), respectively.
